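Growth conditions: 96-well plates. Treatment: test compound, 48 hours, 5 concentrations. Analysis: linear interpolation between bracketing concentrations; unreached endpoints set to highest concentration. Here, GI50 denotes the concentration required for 50% inhibition of growth. At the TGI there is no net growth.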

We go through 14 molecules from PubChem BioAssay (NCI).

Some test systems named below: A549 NSCLC; HOP-62 NSCLC; HOP-92 NSCLC; K-562 leukemia; MOLT-4 leukemia; NCI-H226 lung; OVCAR-5 ovarian; SF-268 CNS; SN12C renal; UACC-62 melanoma.
What all share (assay): growth of human tumour cells (NCI), 48 h

Consider `COc1ccc2nc3cc(Cl)ccc3c(NCCCN(C)CCCNc3ccc4ncn5c6ccccc6c(=O)c3c45)c2c1`, for which the TGI with A549 NSCLC is 1.55 µM; with HOP-62 NSCLC it was 6.1 µM; in the test on HOP-92 NSCLC it was over 16.9 µM; in the test with K-562 leukemia, over 25 µM; in the test with MOLT-4 leukemia it was over 5.72 µM; in the test on NCI-H226 lung, 1.98 µM. In addition, the TGI with OVCAR-5 ovarian came to 6.47 µM; in the test with SF-268 CNS it was 12.6 µM; in the test on SN12C renal, 5.28 µM; with UACC-62 melanoma, 7.93 µM.
As for `CC(C)OP(=O)(OC(C)C)C(=Nc1ccc(N=C(NNc2ccc([N+](=O)[O-])cc2)P(=O)(OC(C)C)OC(C)C)cc1)NNc1ccc([N+](=O)[O-])cc1`, the TGI in the test on A549 NSCLC, in the test on HOP-62 NSCLC, in the test on HOP-92 NSCLC, with K-562 leukemia, with MOLT-4 leukemia and in the test with NCI-H226 lung was over 100 µM throughout. The TGI in the test on OVCAR-5 ovarian is over 100 µM; with SF-268 CNS, over 100 µM; in the test with SN12C renal, over 100 µM; with UACC-62 melanoma, 6.7 µM.
`O[C@@H]1CCCCN1Cc1cc2cc3c(cc2c2cc(OCc4ccccc4)ccc12)OCO3`: the GI50 with A549 NSCLC is 1.62 µM; in the test on HOP-62 NSCLC, 1.55 µM; in the test on HOP-92 NSCLC, 1.35 µM; in the test with K-562 leukemia it was 1.45 µM; in the test with MOLT-4 leukemia, 0.666 µM; in the test on OVCAR-5 ovarian, 1.73 µM. Also, the GI50 was 1.26 µM in the test with SF-268 CNS, 1.42 µM in the test on SN12C renal and 1.89 µM in the test on UACC-62 melanoma. In addition, the TGI in the test with A549 NSCLC worked out at 3.31 µM; in the test on HOP-62 NSCLC, 2.89 µM; with HOP-92 NSCLC, 2.93 µM; with K-562 leukemia, 4.14 µM; in the test on MOLT-4 leukemia, 8.05 µM; in the test on OVCAR-5 ovarian, 3.93 µM. Also, the TGI with SF-268 CNS was found to be 2.61 µM; in the test on SN12C renal, 2.77 µM; in the test on UACC-62 melanoma it was 3.46 µM.
`CS(=O)(=O)Sc1ccc(Cl)cc1`: the TGI stood at 17.5 µM with A549 NSCLC; 5.29 µM in the test with HOP-62 NSCLC; 20 µM in the test on HOP-92 NSCLC; 42.6 µM in the test with K-562 leukemia; 21.7 µM with MOLT-4 leukemia; 20.6 µM with NCI-H226 lung. The values for the TGI in the test with OVCAR-5 ovarian, in the test with SF-268 CNS and in the test on SN12C renal were 31.5 µM, 12.7 µM and 16 µM, respectively.
With `CCOC(=O)/C(C#N)=c1/s/c(=C(\O)N/N=C/c2ccc(OC)cc2)c(=N)n1-c1ccccc1`, the TGI in the test with A549 NSCLC, in the test on HOP-62 NSCLC, in the test on HOP-92 NSCLC, with K-562 leukemia, in the test on MOLT-4 leukemia and with NCI-H226 lung was over 100 µM in each case. For the same molecule, the TGI in the test on OVCAR-5 ovarian, with SF-268 CNS and in the test with UACC-62 melanoma was over 100 µM in each case.
Turning to `NC(C(=O)O)C(O)c1cnc[nH]1` (stereo not drawn), the TGI with A549 NSCLC, in the test with HOP-62 NSCLC, in the test with HOP-92 NSCLC, in the test on K-562 leukemia, with MOLT-4 leukemia and in the test on NCI-H226 lung was over 100 µM each time. Besides, the TGI in the test on OVCAR-5 ovarian, in the test with SF-268 CNS, in the test on SN12C renal and with UACC-62 melanoma was over 100 µM in each case.
On to `C[N+](C)(C)CC(=O)N/N=C\c1c(O)ccc2ccccc12`, for which the TGI was over 100 µM in the test on A549 NSCLC; over 100 µM in the test on HOP-62 NSCLC; 59.3 µM in the test on HOP-92 NSCLC; over 100 µM in the test on K-562 leukemia; 51.7 µM in the test with MOLT-4 leukemia; 85.9 µM in the test on NCI-H226 lung. Moreover, the TGI in the test with OVCAR-5 ovarian is over 100 µM; with SF-268 CNS, 69.8 µM; with SN12C renal it was over 100 µM; with UACC-62 melanoma, over 100 µM.
`O=c1cc(O)c1=O`: the TGI with A549 NSCLC, with HOP-62 NSCLC, in the test with HOP-92 NSCLC, with K-562 leukemia, in the test on MOLT-4 leukemia and with NCI-H226 lung was over 100 µM throughout. Besides, the TGI with OVCAR-5 ovarian, in the test with SF-268 CNS, in the test with SN12C renal and in the test on UACC-62 melanoma was over 100 µM in each case.
As for `CCCCCCCCCCCCOC(=N)N1CCOCC1`, the TGI in the test with A549 NSCLC amounted to 30.4 µM; in the test with HOP-62 NSCLC, 33.3 µM; with HOP-92 NSCLC it was 13.8 µM; in the test with K-562 leukemia, 7.47 µM; in the test on MOLT-4 leukemia, 6.89 µM; in the test with NCI-H226 lung, 37.2 µM. For the same molecule, the TGI in the test on OVCAR-5 ovarian is 28.5 µM; in the test on SF-268 CNS it was 30.4 µM; in the test on SN12C renal, over 52.3 µM; in the test with UACC-62 melanoma, 24.7 µM.
With `Nc1ccc(Oc2ccc(C3(c4ccc(Oc5ccc(N)c(O)c5)cc4)C4CC5CC(C4)CC3C5)cc2)cc1O`, the TGI in the test with A549 NSCLC is 3.14 µM; in the test on HOP-62 NSCLC it was 4.73 µM; in the test on HOP-92 NSCLC, 8.94 µM; in the test with K-562 leukemia, 5.56 µM; with MOLT-4 leukemia, 4.08 µM; with NCI-H226 lung, 3.62 µM. The TGI is 5.75 µM in the test with OVCAR-5 ovarian, 3.62 µM with SN12C renal and 7.68 µM with UACC-62 melanoma.
As for `C/C(=C\COP(=O)(O)CP(=O)(O)O)CC/C=C(\C)CNc1ccccc1`, the TGI in the test on A549 NSCLC, in the test with HOP-62 NSCLC, in the test on K-562 leukemia, with MOLT-4 leukemia, in the test on NCI-H226 lung and in the test on OVCAR-5 ovarian was over 100 µM in each case. Further, the TGI with SF-268 CNS, with SN12C renal and with UACC-62 melanoma was over 100 µM in each case.
As to `COC(=O)C(Cc1ccc2c(c1)OCO2)(NC(=O)c1ccccc1)P(=O)(OC)OC` (stereo not drawn), the TGI in the test with A549 NSCLC, in the test on HOP-62 NSCLC, in the test with HOP-92 NSCLC, in the test with K-562 leukemia, in the test on MOLT-4 leukemia and with NCI-H226 lung was over 100 µM each time. Besides, the TGI in the test with OVCAR-5 ovarian, with SF-268 CNS, in the test with SN12C renal and in the test on UACC-62 melanoma was over 100 µM each time.
Take `Cc1nnc(NS(=O)(=O)c2ccc(N=Nc3c(O)c(C(=O)O)cc4ccccc34)cc2)s1`: the TGI in the test with A549 NSCLC, with HOP-62 NSCLC, in the test on HOP-92 NSCLC, with K-562 leukemia, in the test on MOLT-4 leukemia and in the test with NCI-H226 lung was over 100 µM throughout. The TGI with OVCAR-5 ovarian, with SF-268 CNS, in the test with SN12C renal and in the test with UACC-62 melanoma was over 100 µM throughout.
Take `COc1ccc2c(c1)SC1=Nc3sc4cc(OC)ccc4[n+]3CN12`: the TGI in the test with A549 NSCLC is over 100 µM; in the test on HOP-62 NSCLC it was over 100 µM; in the test with HOP-92 NSCLC, 14.6 µM; in the test with K-562 leukemia, over 100 µM; in the test on MOLT-4 leukemia, 25.1 µM; with OVCAR-5 ovarian it was over 100 µM. Also, the TGI is 28.5 µM with SF-268 CNS, over 100 µM in the test with SN12C renal and 42.4 µM with UACC-62 melanoma.
